Among the data in PubChem BioAssay (NCI) are TGI values, retold here.

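Compound exposure: 48 hours, 5 concentrations, 96-well plates. Definition used: TGI = concentration required for complete inhibition of growth.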 Some results are limits rather than exact numbers.

Some test systems named below: OVCAR-5 ovarian; NCI/ADR-RES ovarian; SK-MEL-5 melanoma; EKVX NSCLC; NCI-H460 lung; BT-549 breast; MDA-MB-435; UACC-62 melanoma; SN12C renal; HT29 colon; RPMI-8226 leukemia; CAKI-1 renal; SR leukemia.
What all share (test): NCI anticancer screen, dose series, 48 h

For the compound `O=C(CN1c2ccccc2Sc2ccccc21)N1CCNCC1`, the TGI with OVCAR-5 ovarian, in the experiment on NCI/ADR-RES ovarian, in the experiment with SK-MEL-5 melanoma, with EKVX NSCLC, with NCI-H460 lung and in the experiment on BT-549 breast was greater than 100 µM in each case. Moreover, the TGI in the experiment with MDA-MB-435, with UACC-62 melanoma, in the experiment with SN12C renal, with HT29 colon and in the experiment on RPMI-8226 leukemia was greater than 100 µM in each case.

Take `C[C@@]12[C@H]3CC[C@@H]1[C@H](O)C(=O)N2CC3`: the TGI in the experiment with OVCAR-5 ovarian, in the experiment with NCI/ADR-RES ovarian, in the experiment on SK-MEL-5 melanoma, in the experiment with EKVX NSCLC, in the experiment with CAKI-1 renal and in the experiment on NCI-H460 lung was greater than 100 µM throughout. The TGI in the experiment with MDA-MB-435, in the experiment with UACC-62 melanoma, with SR leukemia, with HT29 colon and with RPMI-8226 leukemia was greater than 100 µM each time.

Consider `COc1cc2c(cc1OC)C1=Cc3cc(OC)c(OC)cc3C(C)N1C=C2` (configuration not stated), for which the TGI in the experiment on OVCAR-5 ovarian, in the experiment on NCI/ADR-RES ovarian, in the experiment on SK-MEL-5 melanoma, in the experiment on EKVX NSCLC, with NCI-H460 lung and in the experiment on BT-549 breast was greater than 100 µM in each case. The TGI with MDA-MB-435, with UACC-62 melanoma, in the experiment on SN12C renal, with HT29 colon and in the experiment with RPMI-8226 leukemia was greater than 100 µM throughout.

Regarding `CCOC(=O)C1Cc2[nH]c3ccccc3c2C(C)C1C` (configuration not stated), the TGI stood at 32.2 µM in the experiment on OVCAR-5 ovarian; 26.9 µM in the experiment with SK-MEL-5 melanoma; 31.2 µM in the experiment with EKVX NSCLC; 33.9 µM in the experiment on CAKI-1 renal; 33.2 µM in the experiment with NCI-H460 lung; 22.7 µM in the experiment with UACC-62 melanoma. The results for the TGI in the experiment on SR leukemia and in the experiment with SN12C renal were 41.2 µM and 32.8 µM, respectively.

Take `COc1ccc(C(C#N)NNC(=O)c2ccccc2O)cc1OC` (configuration not stated): the TGI in the experiment with OVCAR-5 ovarian was greater than 100 µM; in the experiment on SK-MEL-5 melanoma, 46.9 µM; in the experiment with CAKI-1 renal, 61.4 µM; in the experiment with NCI-H460 lung, greater than 100 µM; in the experiment with UACC-62 melanoma, 0.908 µM; with SR leukemia, greater than 100 µM. Also, the TGI in the experiment with SN12C renal, with HT29 colon and with RPMI-8226 leukemia was greater than 100 µM throughout.

For `CC(=O)OCC(C)C1=C(O)C(=O)C2(C)C/C=C(/C)CC/C=C(\C)CCC(O)C(C)CCC12` (configuration not stated), the TGI in the experiment on OVCAR-5 ovarian came out at 31.6 µM; in the experiment with NCI/ADR-RES ovarian it was 44 µM; in the experiment with SK-MEL-5 melanoma it was 32.1 µM; in the experiment on EKVX NSCLC, 32 µM; in the experiment on CAKI-1 renal it was 35.5 µM; in the experiment with NCI-H460 lung, 32 µM. The TGI turned out to be 32.2 µM with MDA-MB-435; 36.8 µM in the experiment on UACC-62 melanoma; 34.9 µM with SR leukemia; 34.1 µM in the experiment on SN12C renal; 33.3 µM with HT29 colon; 39.2 µM in the experiment with RPMI-8226 leukemia.

For `COc1ccccc1N/C(=C\C(=O)C(=O)NC12CC3CC(CC(C3)C1)C2)c1ccccc1`, the TGI in the experiment on OVCAR-5 ovarian, with NCI/ADR-RES ovarian, in the experiment with SK-MEL-5 melanoma, in the experiment with EKVX NSCLC, in the experiment with CAKI-1 renal and with NCI-H460 lung was greater than 10 µM throughout. In addition, the TGI in the experiment on MDA-MB-435, in the experiment with SR leukemia, in the experiment on SN12C renal, in the experiment on HT29 colon and in the experiment with RPMI-8226 leukemia was greater than 10 µM each time.

`COC(=O)C(CCC#N)(CCC#N)C(=O)OC`: the TGI in the experiment with SK-MEL-5 melanoma, in the experiment with EKVX NSCLC, with NCI-H460 lung, with UACC-62 melanoma, in the experiment with SR leukemia and with SN12C renal was greater than 100 µM throughout. For the same compound, the TGI in the experiment with HT29 colon and in the experiment with RPMI-8226 leukemia was greater than 100 µM in each case.

Take `O=C(O)CSc1nnc(COc2ccc(Cl)cc2)n1-c1ccccc1`: the TGI in the experiment on OVCAR-5 ovarian, in the experiment with NCI/ADR-RES ovarian, in the experiment with EKVX NSCLC, in the experiment with CAKI-1 renal, in the experiment on NCI-H460 lung and in the experiment with MDA-MB-435 was greater than 100 µM each time. Besides, the TGI in the experiment on UACC-62 melanoma, in the experiment with SN12C renal and in the experiment with HT29 colon was greater than 100 µM throughout.

As to `c1ccc(C2C3=C(Nc4ncnn42)c2ccccc2C3)cc1` (configuration not stated), the TGI with OVCAR-5 ovarian, in the experiment on SK-MEL-5 melanoma, with EKVX NSCLC, with CAKI-1 renal, with NCI-H460 lung and with UACC-62 melanoma was greater than 100 µM in each case. Also, the TGI in the experiment with SN12C renal, in the experiment with HT29 colon and in the experiment with RPMI-8226 leukemia was greater than 100 µM throughout.

Take `O=C(Nc1ccc(Br)cc1)c1c(-c2ccccc2)c2ccc(O)cc2oc1=O`: the TGI in the experiment with OVCAR-5 ovarian, in the experiment with NCI/ADR-RES ovarian, in the experiment on SK-MEL-5 melanoma, in the experiment with EKVX NSCLC, with CAKI-1 renal and in the experiment on NCI-H460 lung was greater than 10 µM each time. Also, the TGI in the experiment with MDA-MB-435, in the experiment with SR leukemia, with SN12C renal, in the experiment with HT29 colon and with RPMI-8226 leukemia was greater than 10 µM throughout.

With `CC(CN1c2ccccc2Sc2ccccc21)N(C)C` (configuration not stated), the TGI in the experiment on OVCAR-5 ovarian came to 32.8 µM; in the experiment on NCI/ADR-RES ovarian, 30.5 µM; in the experiment with SK-MEL-5 melanoma, 35.6 µM; in the experiment with EKVX NSCLC, 58.7 µM; with CAKI-1 renal it was 34.1 µM; in the experiment on NCI-H460 lung it was 36 µM. Moreover, the TGI came out at 31.2 µM in the experiment on MDA-MB-435; 33.9 µM with UACC-62 melanoma; 40.9 µM in the experiment on SR leukemia; 29.1 µM with SN12C renal; 30.8 µM in the experiment on HT29 colon.

As for `CC[C@]1(Cc2ccc(OC)c(OC)c2)CN(S(=O)(=O)c2ccc(C)cc2)C[C@@H]1OC(C)=O`, the TGI in the experiment with OVCAR-5 ovarian, in the experiment on NCI/ADR-RES ovarian, in the experiment with SK-MEL-5 melanoma, with EKVX NSCLC, in the experiment on CAKI-1 renal and in the experiment on NCI-H460 lung was greater than 100 µM throughout. Besides, the TGI in the experiment with MDA-MB-435, in the experiment on UACC-62 melanoma, with SR leukemia, in the experiment on HT29 colon and with RPMI-8226 leukemia was greater than 100 µM each time.
